Source: patent US9771358B2, “Dihydropyrimidine compounds and their application in pharmaceuticals” (SUNSHINE LAKE PHARMA CO., LTD., priority 2014, dated 2017)
Read-outs that look alike come from different tables or passages of the source.

Assays:
[1] = Stability in liver microsome, mouse; format: in vitro ADME; settings: liver microsomes; mouse liver microsome 0.1 mg/mL, compound 1 μM, NADPH 2 mM
Procedure: (§1) Then two parallel samples were prepared. After a 10 minutes preincubation at 37° C., 15 μL of NADPH solution (8 mM) was added according to the point-in-time. The final concentration of the text compound was 1 μM, the concentration of liver microsome was 0.1 mg/mL, the final concentration of NADPH was 2 mM. The incubations were last for 0, 15, 30, 60 min respectively, and then 150 μL of acetonitrile (include interior label) was added to the mixture system. After dilution with acetonitrile, the samples were centrifuged for 5 minutes in 4000 rpm. The supernatant liquid was collected for LC-MS/MS analysis.

[2] = Stability in liver microsome, human; format: in vitro ADME; settings: liver microsomes; human liver microsome 0.1 mg/mL, compound 1 μM, NADPH 2 mM
Procedure: as §1

[3] = Stability in liver microsome, dog; format: in vitro ADME; settings: liver microsomes; dog liver microsome 0.1 mg/mL, compound 1 μM, NADPH 2 mM
Procedure: as §1

HBV = assay: In-vitro anti-HBV activity in stable HBV-producing cell line (HepG2.2.15), HBV DNA by qPCR; format: cell-based; settings: Hepatitis B virus
Procedure: HBV DNA contents in cell culture fluid were detected by the qPCR-based assay and 50% effective concentration (EC50) values of the compounds against HBV were calculated. Specific procedures are as follows:
HepG2.2.15 cells were seeded into each well of 96-well plates, 40,000 cells per well. Cells were treated with cell culture medium containing compounds with different concentrations for 24 hours after cell seeding. The final concentration of each compound was 16.4 μM in each well and each compound was diluted to desired concentration using 3-fold gradient dilution protocol, 9 diluted points in duplicate. The culture mediums containing the compounds were refreshed on day 4 post cell seeding. Culture media were collected from the HepG2.2.15 plates on day 7 post cell seeding followed by HBV DNA extraction.
HBV DNA extraction: The HBV DNA extraction was performed using QIAamp 96 DNA Blood Kit (QIAGEN 51161).
PCR for quantification: PCR mix was prepared according to PCR system. PCR mix was dispensed to 96-well optical reaction plates (special for quantification). The standard diluted proportionally was added. Then the sample was added; The plates were sealed with optical adhesive film; PCR system was performed according to programs.
Percentage of HBV inhibition of DNA replication by compound was calculated using the following equation: % Inh.=[1-HBV DNA quantity of sample/HBV DNA quantity of DMSO control]×100.
Calculating EC50 value of compounds to HBV replication: the EC50 values were calculated based on “four-parameter logistic equation” and using GraphPad Prism 5 analysis software.

[4] = Stability in liver microsome, monkey; format: in vitro ADME; settings: liver microsomes; monkey liver microsome 0.1 mg/mL, compound 1 μM, NADPH 2 mM
Procedure: as §1

[5] = PK of test compounds in beagle; format: in vivo, beagle dog; settings: for Cmax / Tmax / clearance / half-life / AUC(0-inf) / AUC(0-t) / Vd: dog, plasma; for AUC(0-inf): AUC in 0 hour to infinite time; for Vd: read-out: Vss; for F: absolute bioavailability
Procedure: The test compounds were administrated to beagle dog by gavage in dose of 2.5 mg/kg or 5 mg/kg, or by intravenous injection in dose of 1 mg/kg or 2 mg/kg. Blood sample was collected at 0.083, 0.25, 0.5, 1, 2, 4, 6, 8 and 24 hours from vein after administration into anticoagulation tubes with EDTA-K2. The test compounds were extracted from plasma samples and chromatographed on a tandem mass spectrometer. Quantitation was performed using multiple reaction monitoring (MRM). Pharmacokinetic parameters were calculated using WinNonlin 6.3 software with non compartment model.

[6] = 168 h, HepG2.2.15 cells, HBV DNA in culture fluid, day 7, top concentration 16.4 μM
[7] = iv, 1 mg/kg, iv, 1 mg/kg, AUC in 0-24 hours, read-out: AUClast
[8] = po, 2.5 mg/kg, po, 2.5 mg/kg value multiplied by 2, read-out: AUClast ×2 (calculated by dosage)
[9] = po, 2.5 mg/kg, po, 2.5 mg/kg, AUC in 0-24 hours, read-out: AUClast

SMILES	CLint scaled at 1 μM [1] [mL/min/kg]	half-life at 1 μM [1] [h]	CLint scaled at 1 μM [2] [mL/min/kg]	half-life at 1 μM [2] [h]	CLint scaled at 1 μM [3] [mL/min/kg]	half-life at 1 μM [3] [h]	EC50 (HBV; [6]) [nM]	CLint scaled at 1 μM [4] [mL/min/kg]	half-life at 1 μM [4] [h]	Cmax ([5]; iv, 1 mg/kg) [ng/mL]	Tmax ([5]; iv, 1 mg/kg) [h]	clearance ([5]; iv, 1 mg/kg) [mL/min/kg]	half-life ([5]; iv, 1 mg/kg) [h]	AUC(0-inf) ([5]; iv, 1 mg/kg) [ng·h/mL]	AUC(0-t) [5, 7] [ng·h/mL]	Vd ([5]; iv, 1 mg/kg) [L/kg]	Cmax ([5]; po, 2.5 mg/kg) [ng/mL]	Tmax ([5]; po, 2.5 mg/kg) [h]	half-life ([5]; po, 2.5 mg/kg) [h]	AUC(0-inf) ([5]; po, 2.5 mg/kg) [ng·h/mL]	also measured
CCOC(=O)C1=C(CN2CCO[C@H](CCC(=O)O)C2)NC(c2nccs2)=N[C@H]1c1ccc(Cl)cc1Cl [Example 12, 3-((R)-4-(((R)-6-(2,4-dichlorophenyl)-5-(ethoxycarbonyl)-2-(thiazol-2-yl)-3,6-dihydropyrimidin-4-yl)methyl)morpholin-2-yl)propanoic acid]	604	0.15	18.6	1.56	17.5	3.28	26	122	0.277	2230	0.083	2.12	6.2	7970	7570	0.832	2660	0.5	9.07	16800	AUC(0-t) [5, 8]: 30000 ng·h/mL; AUC(0-t) [5, 9]: 15000 ng·h/mL; F ([5]; po, 2.5 mg/kg): 84.48%
COC(=O)C1=C(CN2CCO[C@H](CCC(=O)O)C2)NC(c2nccs2)=N[C@H]1c1ccc(F)cc1Cl [Example 10, 3-((R)-4-(((R)-6-(2-Chloro-4-fluorophenyl)-5-(methoxycarbonyl)-2-(thiazol-2-yl)-3,6-dihydropyrimidin-4-yl)methyl)morpholin-2-yl)propanoic acid]	57.7	1.58	3.72	7.78	6.13	9.39	45	15.4	2.19	2430	0.083	1.74	5.16	9710	9400	0.62	4560	0.833	4.57	28000	AUC(0-t) [5, 8]: 54000 ng·h/mL; AUC(0-t) [5, 9]: 27400 ng·h/mL; F ([5]; po, 2.5 mg/kg): 115%
COC(=O)C1=C(CN2CCO[C@H](CCC(=O)O)C2)NC(c2nccs2)=N[C@H]1c1ccc(F)cc1Br [Example 11, 3-((R)-4-(((R)-6-(2-Bromo-4-fluorophenyl)-5-(methoxycarbonyl)-2-(thiazol-2-yl)-3,6-dihydropyrimidin-4-yl)methyl)morpholin-2-yl)propanoic acid]	86.3	1.05	6.93	4.18	10.1	5.72	35	14.4	2.34	3400	0.139	1.59	4.99	10900	10500	0.545	4310	0.75	4.92	24400	AUC(0-t) [5, 8]: 47400 ng·h/mL; AUC(0-t) [5, 9]: 23700 ng·h/mL; F ([5]; po, 2.5 mg/kg): 89.66%
CCOC(=O)C1=C(CN2CCO[C@H](CCC(=O)O)C2)NC(c2nccs2)=N[C@H]1c1ccc(F)cc1Cl [Example 9, 3-((R)-4-(((R)-6-(2-Chloro-4-fluorophenyl)-5-(ethoxycarbonyl)-2-(thiazol-2-yl)-3,6-dihydropyrimidin-4-yl)methyl)morpholin-2-yl)propanoic acid]	281	0.324	11.4	2.53	19.4	2.96	48	75.6	0.447	2570	0.083	1.51	6.59	11300	10600	0.63	4360	0.5	4.62	24800	EC50 (HBV; HepG2.2.15, isomers of compound of formular (II)): 48 nM; AUC(0-t) [5, 8]: 48600 ng·h/mL; AUC(0-t) [5, 9]: 24300 ng·h/mL; F ([5]; po, 2.5 mg/kg): 87.91%
